Tested on: 889142-216-R-J1-PDC complex spheroid viability
Test: Anticancer human tumor 889142-216-R-J1-PDC patient-derived bladder carcinoma cell line growth inhibition [POLQ]
Conditions: for IC50: curve of first compound; for viability, T/C: stronger effect = lower value
Procedure, shortened: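 Three-cell-type spheroids modelling solid tumor plus stroma served as the readout system; POL inhibitors were tested individually and in combination, concentration ranges set by clinical Cmax where known.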

[1] = second compound 0.0316 µM, first compound 0.0316 µM
[2] = second compound 0.0316 µM, first compound 0.1 µM
[3] = second compound 0.0316 µM, first compound 0.316 µM
[4] = second compound 0.0316 µM, first compound 1 µM
[5] = second compound 0.0316 µM, first compound 3.16 µM
[6] = second compound 0.0316 µM, first compound 10 µM
[7] = second compound 0.1 µM, first compound 0.0316 µM
[8] = second compound 0.1 µM, first compound 0.1 µM
[9] = second compound 0.1 µM, first compound 0.316 µM
[10] = second compound 0.1 µM, first compound 1 µM
[11] = second compound 0.1 µM, first compound 3.16 µM
[12] = second compound 0.1 µM, first compound 10 µM
[13] = second compound 0.316 µM, first compound 0.0316 µM
[14] = second compound 0.316 µM, first compound 0.1 µM
[15] = second compound 0.316 µM, first compound 0.316 µM
[16] = second compound 0.316 µM, first compound 1 µM
[17] = second compound 0.316 µM, first compound 3.16 µM
[18] = second compound 0.316 µM, first compound 10 µM
[19] = second compound 1 µM, first compound 0.0316 µM
[20] = second compound 1 µM, first compound 0.1 µM
[21] = second compound 1 µM, first compound 0.316 µM
[22] = second compound 1 µM, first compound 1 µM
[23] = second compound 1 µM, first compound 3.16 µM
[24] = second compound 1 µM, first compound 10 µM
[25] = second compound 3.16 µM, first compound 0.0316 µM
[26] = second compound 3.16 µM, first compound 0.1 µM
[27] = second compound 3.16 µM, first compound 0.316 µM
[28] = second compound 3.16 µM, first compound 1 µM
[29] = second compound 3.16 µM, first compound 3.16 µM
[30] = second compound 3.16 µM, first compound 10 µM
[31] = second compound 10 µM, first compound 0.0316 µM
[32] = second compound 10 µM, first compound 0.1 µM
[33] = second compound 10 µM, first compound 0.316 µM
[34] = second compound 10 µM, first compound 1 µM
[35] = second compound 10 µM, first compound 3.16 µM
[36] = second compound 10 µM, first compound 10 µM
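Also: spheroids exposed to compounds for seven days.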
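For viability, T/C in this document: 100% = DMSO vehicle control viability.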

CCc1cc2c(N3CCc4c(cc(Cn5ccnc5)cc4-c4cn(C)nc4C(F)(F)F)C3=O)cc(C)nc2c(OC)n1 + Cc1cccc(N(C)C(=O)C2C(O)CCN2c2nc(C)cc(C(F)(F)F)c2C#N)c1
IC50 (second compound 0.0316 µM): > 10 µM | IC50 (second compound 0.1 µM): > 10 µM | IC50 (second compound 0.316 µM): > 10 µM | IC50 (second compound 1 µM): > 10 µM | IC50 (second compound 3.16 µM): > 10 µM | IC50 (second compound 10 µM): > 10 µM | viability, T/C [1]: 109% | viability, T/C [2]: 132% | viability, T/C [3]: 121% | viability, T/C [4]: 108% | viability, T/C [5]: 91.3% | viability, T/C [6]: 80.8% | viability, T/C [7]: 119% | viability, T/C [8]: 98.8% | viability, T/C [9]: 105% | viability, T/C [10]: 114% | viability, T/C [11]: 109% | viability, T/C [12]: 96.8% | viability, T/C [13]: 113% | viability, T/C [14]: 111% | viability, T/C [15]: 137% | viability, T/C [16]: 137% | viability, T/C [17]: 130% | viability, T/C [18]: 83.9% | viability, T/C [19]: 91% | viability, T/C [20]: 106% | viability, T/C [21]: 143% | viability, T/C [22]: 112% | viability, T/C [23]: 94.7% | viability, T/C [24]: 84.3% | viability, T/C [25]: 104% | viability, T/C [26]: 121% | viability, T/C [27]: 114% | viability, T/C [28]: 94.9% | viability, T/C [29]: 112% | viability, T/C [30]: 69.9% | viability, T/C [31]: 89.2% | viability, T/C [32]: 88.3% | viability, T/C [33]: 109% | viability, T/C [34]: 144% | viability, T/C [35]: 83.7% | viability, T/C [36]: 70.8%

Cn1ncnc1[C@H]1c2n[nH]c(=O)c3cc(F)cc(c23)N[C@@H]1c1ccc(F)cc1 + Nc1ccc(C#CCN(C(=O)Cc2ncc(C(F)(F)F)cc2C(F)(F)F)c2ccc(F)cc2)nn1
IC50 (second compound 0.0316 µM): > 0.1 µM | IC50 (second compound 0.1 µM): > 0.1 µM | IC50 (second compound 0.316 µM): > 0.1 µM | IC50 (second compound 1 µM): > 0.1 µM | IC50 (second compound 3.16 µM): > 0.1 µM | IC50 (second compound 10 µM): > 0.1 µM | viability, T/C (second compound 0.0316 µM, first compound 0.000316 µM): 96.8% | viability, T/C (second compound 0.0316 µM, first compound 0.001 µM): 121% | viability, T/C (second compound 0.0316 µM, first compound 0.00316 µM): 110% | viability, T/C (second compound 0.0316 µM, first compound 0.01 µM): 85.7% | viability, T/C [1]: 90.3% | viability, T/C [2]: 87.4% | viability, T/C (second compound 0.1 µM, first compound 0.000316 µM): 176% | viability, T/C (second compound 0.1 µM, first compound 0.001 µM): 83.6% | viability, T/C (second compound 0.1 µM, first compound 0.00316 µM): 92% | viability, T/C (second compound 0.1 µM, first compound 0.01 µM): 91.4% | viability, T/C [7]: 105% | viability, T/C [8]: 101% | viability, T/C (second compound 0.316 µM, first compound 0.000316 µM): 108% | viability, T/C (second compound 0.316 µM, first compound 0.001 µM): 102% | viability, T/C (second compound 0.316 µM, first compound 0.00316 µM): 91.3% | viability, T/C (second compound 0.316 µM, first compound 0.01 µM): 79.6% | viability, T/C [13]: 97.2% | viability, T/C [14]: 73.2% | viability, T/C (second compound 1 µM, first compound 0.000316 µM): 127% | viability, T/C (second compound 1 µM, first compound 0.001 µM): 81.1% | viability, T/C (second compound 1 µM, first compound 0.00316 µM): 124% | viability, T/C (second compound 1 µM, first compound 0.01 µM): 95.9% | viability, T/C [19]: 67.4% | viability, T/C [20]: 72.2% | viability, T/C (second compound 3.16 µM, first compound 0.000316 µM): 110% | viability, T/C (second compound 3.16 µM, first compound 0.001 µM): 124% | viability, T/C (second compound 3.16 µM, first compound 0.00316 µM): 135% | viability, T/C (second compound 3.16 µM, first compound 0.01 µM): 77.1% | viability, T/C [25]: 92.3% | viability, T/C [26]: 87.2% | viability, T/C (second compound 10 µM, first compound 0.000316 µM): 122% | viability, T/C (second compound 10 µM, first compound 0.001 µM): 93.5% | viability, T/C (second compound 10 µM, first compound 0.00316 µM): 113% | viability, T/C (second compound 10 µM, first compound 0.01 µM): 90.2% | viability, T/C [31]: 115% | viability, T/C [32]: 80.4%

CCc1cc2c(N3CCc4c(cc(Cn5ccnc5)cc4-c4cn(C)nc4C(F)(F)F)C3=O)ccnc2c(OC)n1 + COC1C(OC(N)=O)C(O)C(Oc2ccc3c(O)c(NC(=O)c4ccc(O)c(CC=C(C)C)c4)c(=O)oc3c2C)OC1(C)C
IC50 (second compound 0.0316 µM): > 10 µM | IC50 (second compound 0.1 µM): > 10 µM | IC50 (second compound 0.316 µM): > 10 µM | IC50 (second compound 1 µM): > 10 µM | IC50 (second compound 3.16 µM): > 10 µM | IC50 (second compound 10 µM): > 10 µM | viability, T/C [1]: 120% | viability, T/C [2]: 109% | viability, T/C [3]: 119% | viability, T/C [4]: 95.5% | viability, T/C [5]: 69.1% | viability, T/C [6]: 83% | viability, T/C [7]: 101% | viability, T/C [8]: 117% | viability, T/C [9]: 98.3% | viability, T/C [10]: 111% | viability, T/C [11]: 105% | viability, T/C [12]: 62% | viability, T/C [13]: 105% | viability, T/C [14]: 106% | viability, T/C [15]: 102% | viability, T/C [16]: 115% | viability, T/C [17]: 96.1% | viability, T/C [18]: 64.3% | viability, T/C [19]: 112% | viability, T/C [20]: 130% | viability, T/C [21]: 107% | viability, T/C [22]: 102% | viability, T/C [23]: 83.9% | viability, T/C [24]: 77.7% | viability, T/C [25]: 95.6% | viability, T/C [26]: 106% | viability, T/C [27]: 117% | viability, T/C [28]: 94.2% | viability, T/C [29]: 95% | viability, T/C [30]: 77.9% | viability, T/C [31]: 122% | viability, T/C [32]: 103% | viability, T/C [33]: 112% | viability, T/C [34]: 109% | viability, T/C [35]: 91.6% | viability, T/C [36]: 67.3%

Source: PubChem BioAssay AID1963831 (Molecular Pharmacology Branch, DTP, NCI, 2024)
